Legend:
[1] = Photophysical properties: UV absorbance, fluorescence emission and quantum yield in different solvents; format: physicochemical; conditions: for quantum yield (Φ): vs. quinine sulfate standard
Protocol: Quantum yields (Φ) were measured by comparison with a standard, which emits in a similar region to the test sample. From the available standard compounds quinine sulfate in 0.1 M H2SO4 (Φ=0.54) was selected.
UV absorbance at the excitation wavelength (375 nm), and fluorescence emission spectra of a series of solutions of the standard and compound were recorded. Solutions were prepared with different absorbances, ranging from 0 (solvent blank) to 0.1. A series of graphs of integrated fluorescence vs. absorbance were obtained. The data were fitted to a linear equation with gradient (grad), and intercept=0. See FIG. 5 as an example of the plots obtained.
The gradients of graphs in FIG. 5 are proportional to the quantum yield of the different samples. Absolute values were calculated using the standard sample, which has a fixed and known fluorescence quantum yield value, according to the following equation: […]
Where the subscripts std and x denote standard and test respectively. The value Φ is the fluorescence quantum yield, grad is the gradient (grad) from the plot of integrated fluorescence intensity vs. absorbance, and η the refractive index of the solvent.
The UV absorbance spectra (40 μM in methanol) and fluorescence emission spectra of compound (VIII), 6DMN-GlyOMe are shown in FIG. 6 and tabulated in Table 4. The UV spectrum of 6DMN-GlyOMe has an intense absorption band at 378 nm which is not found in unsubstituted 2,3-naphthalimides. The maximum excitation wavelength of 6DMN-GlyOMe is at 375 nm.
Quantum yields (Φ) were measured in the solvents listed in Table 2 by comparison with a standard, which emits in a similar region to 6DMN-GlyOMe. Quinine sulfate in 0.1 M H2SO4 (Φ=0.54) was used as the standard. (Melhuish, W. B. J. Phys. Chem., 1961, 65, 229-235). Solutions were prepared at different concentrations such that the absorbance measurements ranged between 0 and 0.1 at and above the excitation wavelength to avoid non-linear effects.
UV absorbance at the excitation wavelength (375 nm), and fluorescence emission spectra of a series of solutions of the standard and 6DMN-GlyOMe were recorded. A series of graphs of integrated fluorescence vs. absorbance were obtained. The data were fitted to a linear equation with gradient (grad), and intercept=0. The gradient (grad) is proportional to the quantum yield of the sample. Absolute values were calculated using the standard sample, which has a fixed and known fluorescence quantum yield value, according to the equation above.

[2] = Lippert-Mataga plot: Stokes shift vs. orientation polarizability; format: physicochemical; conditions: from Stokes shift in 1,4-dioxane/acetonitrile mixtures
Source text: This can be estimated from a Lippert-Mataga plot, which is essentially a plot of the Stokes shift of the fluorescence emission versus the solvent polarity. (Lippert, V. E. Z. Elektrochem. 1957, 61, 962-975; Mataga, N.; Kaifu, Y.; Koizumi, M. Bull. Chem. Soc. Jpn. 1956, 29, 465-470.)
The difference (Δ v) in the maximum absorption ( vA) and emission wavelengths ( vF), known as the Stokes shift and expressed in wavenumbers, is plotted vs. Δf. The term Δf is called the orientation polarizability and can be calculated according to the following equation:
[formula] where ε is the solvent dielectric constant and n is the solvent refraction index.
The term Δf can also be calculated for a mixture of solvents. […] In this case, Δf is obtained for each mixture using ε and n values calculated using the molar fractions (χ) in the equation as follow: ε=(χacetonitrile)(38.8)+(χdiox)(2.218) (3) n=(χacetonitrile)(1.3442)+(χdiox)(1.4224) (4) where χacetonitrile+χdiox=1.
The relationship between Δ v and Δf is expressed by the following equation:
[formula] where c is the velocity of light, h is Plank's constant, μe−μg is the difference between the dipole moments of the excited and the ground states respectively (Δμ), and α0 is the radius of the Onsager cavity around the compound.

Which results are given for `COC(=O)CN1C(=O)c2cc3ccc(N(C)C)cc3cc2C1=O` [Peptide 6DMN-GlyOMe]?
maximum excitation wavelength [1]: 375 nm; intense absorption band of the UV spectrum ([1]; 40 μM in methanol): 378 nm; absorbance maximum ([1]; 1,4-dioxane): 372 nm; emission maximum ([1]; 1,4-dioxane): 498 nm; quantum yield (Φ) ([1]; 1,4-dioxane): 0.220; absorbance maximum ([1]; 2-propanol): 385 nm; emission maximum ([1]; 2-propanol): 589 nm; quantum yield (Φ) ([1]; 2-propanol): 0.018; absorbance maximum ([1]; DMF): 380 nm; emission maximum ([1]; DMF): 545 nm; quantum yield (Φ) ([1]; DMF): 0.155; absorbance maximum ([1]; acetone): 375 nm; emission maximum ([1]; acetone): 532 nm; quantum yield (Φ) ([1]; acetone): 0.148; absorbance maximum ([1]; acetonitrile): 380 nm; emission maximum ([1]; acetonitrile): 549 nm; quantum yield (Φ) ([1]; acetonitrile): 0.135; absorbance maximum ([1]; chloroform): 380 nm; emission maximum ([1]; chloroform): 509 nm; quantum yield (Φ) ([1]; chloroform): 0.225; absorbance maximum ([1]; dichloromethane): 379 nm; emission maximum ([1]; dichloromethane): 517 nm; quantum yield (Φ) ([1]; dichloromethane): 0.210; absorbance maximum ([1]; ethanol): 379 nm; emission maximum ([1]; ethanol): 584 nm; quantum yield (Φ) ([1]; ethanol): 0.027; absorbance maximum ([1]; methanol): 382 nm; emission maximum ([1]; methanol): 589 nm; quantum yield (Φ) ([1]; methanol): 0.012; absorbance maximum ([1]; tetrahydrofuran): 373 nm; emission maximum ([1]; tetrahydrofuran): 510 nm; quantum yield (Φ) ([1]; tetrahydrofuran): 0.147; absorbance maximum ([1]; toluene): 373 nm; emission maximum ([1]; toluene): 491 nm; quantum yield (Φ) ([1]; toluene): 0.208; absorbance maximum ([1]; water): 388 nm; emission maximum ([1]; water): 592 nm; increase in the dipole moment between ground and excited state [2]: 5.5 D
